pKd: −log10 of the molar value.
Biological target: T1, human gastric Intrinsic factor (IF; hrIF) (Homo sapiens, UniProt P27352)
T1 construct: gene CBLIF; recombinant apo-IF expressed in Arabidopsis thaliana (Xeragenx LLC); secreted glycoprotein ~50 kDa with plant glycosylation
Experiment: radiometric chase assay with […]-B12
Assay type: binding
Settings: competition against 57Co-B12; B12-desferrioxamine conjugate chelated to cold 91Zr (pH 7-7.5)

T1 sequence (P27352 19-417): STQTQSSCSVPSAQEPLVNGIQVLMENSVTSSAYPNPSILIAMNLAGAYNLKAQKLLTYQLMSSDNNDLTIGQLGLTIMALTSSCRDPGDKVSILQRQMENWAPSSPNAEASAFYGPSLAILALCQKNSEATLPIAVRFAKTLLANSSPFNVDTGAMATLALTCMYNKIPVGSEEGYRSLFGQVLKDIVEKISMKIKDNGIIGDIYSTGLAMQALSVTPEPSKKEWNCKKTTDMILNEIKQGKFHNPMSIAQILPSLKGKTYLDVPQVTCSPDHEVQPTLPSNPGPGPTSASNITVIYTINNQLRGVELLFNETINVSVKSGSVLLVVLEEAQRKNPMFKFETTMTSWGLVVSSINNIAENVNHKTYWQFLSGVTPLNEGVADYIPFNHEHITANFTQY

Substance: [^91Zr]-B12
- pKd: 8.80

Source: article PMC6706418, “Systemically Administered Plant Recombinant Holo-Intrinsic Factor Targets the Liver and is not Affected by Endogenous B12 levels” (Scientific Reports, 2019)
